This test concerns adult subjects with relapsing MS. Nature of the test: Combined unique active lesions (CUAL) on brain MRI from baseline to Week 108. The conditions noted are these: for CUAL mean estimate (Lesions per year), negative binomial regression: ponesimod 20 mg, teriflunomide 14 mg; for Total number of lesions (CUAL): total time 1072 / 1067 years; for Raw mean lesions/year (CUAL): baseline to week 108. Type of test: in vivo, human. As to the method: Secondary efficacy variables and testing strategy: Four secondary efficacy endpoints were analyzed as per the statistical testing strategy outlined in FIG. 1. • Change from baseline to Week 108 in fatigue-related symptoms as measured by the symptoms domain of the FSIQ-RMS patient-reported outcome [Fatigue] • Cumulative number of combined unique active lesions from baseline to Week 108 on brain MRI [CUALs] • Time to first 12-week confirmed disability accumulation (CDA) from baseline to EOS on Expanded Disability Status Scale (EDSS) [12-week CDA] • Time to first 24-week CDA from baseline to EOS on EDSS [24-week CDA]
CUAL are new Gd+T1 lesions plus new or enlarging T2 lesions (without double-counting of lesions).
MRI scans were performed at Visits 2 (Baseline). 10 (Week 60), and 14 (EOT) and at any unscheduled visit (U1, U2, etc.). If applicable, MRI scans also were performed at the corresponding visits in the PTOP (Visits 10A and 14A). Testing at all visits were performed up to 7 days prior to or after the visit date.
T1-weighted imaging before and after i.v. administration of 0.1 mmol/kg body weight (=0.2 mL/kg) of Gd as well as PD-T2-weighted imaging was performed. Gd may cause nausea and vomiting and in very rare cases allergic reactions that could require immediate anti-anaphylactic therapy (such as steroids, epinephrine/adrenaline, etc.).
ARR differences and mean number of CUALs were examined using a negative binomial regression model with adjusting for the log time in the study (in years) as an offset.

[1] abbreviates: baseline to Week 108, Full Analysis Set.

This is an account of results in patent US12728116B2, “Methods of treating multiple sclerosis” (Vanda Pharmaceuticals Inc., priority 2021, dated 2026).

Each structure is given as a SMILES string. “And” between values parts separate entries of the source, which are not always exact repeats. Equal entries are not always repeated.

In the case of `C/C(O)=C(\C#N)C(=O)Nc1ccc(C(F)(F)F)cc1` [Teriflunomide, reference compound], the “Raw mean lesions/year (CUAL)” value was 3.481 lesions/year. For the same compound, under setting [1], the “CUAL mean estimate (Lesions per year), negative binomial regression” value is recorded as 3.164 Lesions per year. In addition, the “Total number of lesions (CUAL)” value (baseline to Week 108) is given as 3714.

`CCC/N=C1\S/C(=C\c2ccc(OC[C@H](O)CO)c(Cl)c2)C(=O)N1c1ccccc1C` [Ponesimod, (R)-5-[3-chloro-4-(2,3-dihydroxy-propoxy)-benz[Z]ylidene]-2-([Z]-propylimino)-3-o-tolyl-thiazolidin-4-one]: the “Raw mean lesions/year (CUAL)” value came to 1.559 lesions/year. For the same compound, under setting [1], the “CUAL treatment effect (Rate Ratio), ponesimod vs. teriflunomide” value was 0.44 and 0.444; the “CUAL mean estimate (Lesions per year), negative binomial regression” value is given as 1.405 Lesions per year. The “Total number of lesions (CUAL)” value (baseline to Week 108) worked out at 1671. The “CUALs, benefit compared with teriflunomide in subgroups” value (patients with EDSS≤3 and treatment-naïve patients) is listed as “benefited from ponesimod compared with teriflunomide”. The “Reduction of number of CUALs between baseline and week 108 compared to teriflunomide” value (ponesimod 20 mg vs teriflunomide 14 mg) amounted to 56%.
